Where two headings read alike, the source gives them in different places. Peptide text beside a SMILES is read from it.
How the values were obtained:
[1] = tested on: HIV-1NL4-3; test: Inhibition of HIV-1 NL4-3 replication in U87.CD4.CXCR4 cells (RT activity in supernatant); type: cell-based
Experimental: Drug sensitivity assays were performed on U87.CD4.CXCR4/CCR5 cells and in peripheral blood mononuclear cells (PBMC). Peptidomimetics or control drugs were added to cells to yield final concentrations between 100 µM and 10 nM. Cells were incubated with drug for 1 h and exposed to the virus at a multiplicity of infection of 0.001, incubated with the virus for 24 h, and input virus washed away. Supernatant aliquots were removed and virus production was quantified by reverse transcriptase assay. Virus production at each drug concentration was normalized and the relative values were plotted versus drug concentration to determine 50% inhibitory concentrations (IC50). Variations on these drug susceptibility assays are defined in each figure and related text. For the time-of-drug-inhibition experiments, HIV-1 was spinonculated onto U87-CD4/CCR5 cells as previously described. The cells were washed twice with cold phosphate buffered saline (PBS) to remove unbound virions. Cells were resuspended in cold medium and split into 96-well plates (50 µl/well). […] Cells were incubated for 72 h and then treated with lysis buffer and luciferase activity was determined. The same procedure was utilized for the time-of-drug-addition experiment involving cell-to-cell fusion. […]

[2] = tested on: HIV-1Luc-AM; type: cell-based
[3] = tested on: HIV NL4-3; test: Inhibition of HIV NL4-3 in PHA/IL-2 stimulated human PBMC; type: cell-based, HIV-1; conditions: Human immunodeficiency virus 1, NL43; human PBMC stimulated with PHA/IL-2; RT activity in supernatant at 8 and 10 days post-infection
Experimental: Figure 2 Testing the susceptibility of HIV-1 to inhibition by Tat peptidomimetics. (A) Comparison of the relative inhibition of the HIV-1 NL4-3 laboratory strain by three lead Tat peptidomimetics. Virus production in cell free supernatant was measured using an endogenous RT assay. […] (D) L-50 inhibition of viral replication of three primary CCR5-tropic HIV-1 isolates measured in U87.CD4.CCR5 cells (A1 is the subtype A Rawandan isolate A1-92RW009, B5 is the subtype B isolate B5-91US056 from the USA and C5 is the subtype C isolate C5-97ZA003 from South Africa) and of CXCR4-tropic strains (D1 is the Ugandan subtype D isolate D1-92UG021, E6 is the subtype A/E circulating recombinant isolate CRF01_AE from Thailand) as well as the laboratory strain HIV-1NL4-3 measured in U87.CD4.CXCR4 cell cultures. […] (E) Inhibition of HIV NL4-3 was also measure in human peripheral blood mononuclear cells stimulated with PHA/IL-2. […] Virus production was measured at 8 and 10 days post-infection by the RT activity in the supernatant (cpm/mL).
Drug sensitivity assays were performed on U87.CD4.CXCR4/CCR5 cells and in peripheral blood mononuclear cells (PBMC). […] Supernatant aliquots were removed and virus production was quantified by reverse transcriptase assay. […] Cells were incubated for 72 h and then treated with lysis buffer and luciferase activity was determined. […]

[4] = tested on: murine leukemia virus (MLV); type: cell-based
[5] = tested on: HIV-1NL4-3 carrying firefly luciferase; type: cell-based; conditions: for t1/2, time of drug addition that maintains 50% inhibition: AMD3100 10 µM, T20 10 µM, 3TC 100 µM, Raltegravir 10 µM, DRB 50 µM
[6] = tested on: Tat/Rev-dependent luciferase after 293T (HIV-1 Env) / U87.CD4.CXCR4 cell fusion; conditions: for t1/2, time of drug addition that maintains 50% inhibition, cell-to-cell fusion: monophasic, Tat/Rev-dependent luciferase in cell lysates, triplicate
[7] = tested on: HIV-1NL4-3 carrying firefly luciferase; conditions: cited from earlier work
Source text: There is also evidence that Tat plays a role in viral reverse transcription, although much of this work has been controversial. Loss of function Tat mutants have been reported to impair reverse transcription 3- to 5-fold compared to wild type HIV-1 both in infected T cells and in endogeneous reverse transcription reactions, [69]. Tat-mediated RNA secondary structure remodeling may facilitate obligatory strand transfers during viral DNA synthesis by reverse transcriptase. However, it is possible to create replication-competent viruses where the TAR RNA sequence is replaced by a ...

[8] = tested on: HIV-1 TAR; conditions: cited from earlier work
Source text: Linear peptide derivatives have been used previously to target TAR RNA and block Tat binding, [17], [20], [21] but their utility was limited by conformational flexibility which allowed non-specific RNA binding. To avoid this problem we have developed conformationally constrained mimics of HIV-1 Tat [24]–[27] based on the structure of the BIV (Bovine Immunodeficiency Virus) Tat-TAR complex, [29] (Figure 1). Specifically, we constructed a series of ß-hairpin mimics with 12-residue loops on a heterochiral D-Pro-L-Pro dipeptide scaffold. This D-Pro-L-Pro scaffold strongly ... || Our design of inhibitors of the TAR RNA-Tat protein interaction started with the assumption that constrained peptidomimetics would provide effective rationale to block the relatively large interfaces formed between the viral protein and its cognate RNA [24]–[27]. The D-Pro-L-Pro template restricts pharmacophores into planar ß-hairpin structures with side chains emerging from each side. […] Specific and high affinity binding allow ...

[9] = tested on: Tat-mediated transactivation of HIV-1 LTR; test: LTR-luciferase reporter + Tat in 293T cells (Figure 3B); type: cell-based; conditions: 10 µM
[10] = tested on: HIV-1 LTR promoter; test: pLTR.LUC reporter alone or co-transfected with HIV-1NL4-3 in 293T cells (Figure 4); type: cell-based
[11] = tested on: (-) strand strong stop DNA synthesis by recombinant HIV-1 RT (p66/p51) on wild type TAR template; test: Reconstituted in vitro reverse transcription, wild type R_U5_pbs RNA template; type: biochemical
Source text: This assay measures the synthesis of (-) strand strong stop DNA by recombinant HIV-1 RT (p66/p51) from an 18 nt DNA primer, pre-annealed to an HIV-1 RNA template encompassing the repeat (R), 5′ unique sequence (U5), and the primer binding sequence (PBS) [49].
HIV-1 RNA representing the wild type R, U5, pbs, and uncoding sequence (270 nt) (wt R_U5_pbs RNA) was produced by in vitro T3 transcription (T3 MegaScript, Ambion) from a PCR product (with T3 extended primer) derived from NL4-3. […] The DNA primer (18 nt), complementary to the primer binding sequence (3′ end of tRNA^Lys,3), was annealed to the template as described [78]. The DNA primer was annealed to the various HIV-1 RNA templates by denaturation and annealing conditions previously described [78]. […] Reactions were incubated at 37°C for 45 min and then quenched with formamide EDTA loading buffer [78] for subsequent electrophoresis on a 8% denaturing polyacrylamide gel. Gels were autoradiographed and analyzed with a BioRad phosphorimager.

[12] = tested on: CMV promoter; test: CMV promoter luciferase control reporter in 293T cells; type: cell-based
[13] = tested on: (-) strand strong stop DNA synthesis by HIV-1 RT on mutant TAR template; test: Reconstituted in vitro reverse transcription, mutant TAR RNA template; type: biochemical; conditions: 8 µM
Source text: To determine if L-50 inhibition of reverse transcription was dependent on the high affinity Tat-binding site located at the TAR bulge, mutations that inactivate Tat-binding were introduced into the RNA template (Figure 9A).
The mutant TAR RNA transcript (with mutations 5′-UCUG-3′ to 5′-UGGU-3′ in the bulge) was generated by T3 transcription from a PCR product with the forward primer having the nt substitutions for site-directed mutagenesis. […] The DNA primer (18 nt), complementary to the primer binding sequence (3′ end of tRNA^Lys,3), was annealed to the template as described [78]. The DNA primer was annealed to the various HIV-1 RNA templates by denaturation and annealing conditions previously described [78]. […] Reactions were incubated at 37°C for 45 min and then quenched with formamide EDTA loading buffer [78] for subsequent electrophoresis on a 8% denaturing polyacrylamide gel. Gels were autoradiographed and analyzed with a BioRad phosphorimager.

[14] = tested on: BIV TAR RNA; conditions: Discussion; cited from earlier work
Source text: Our design of inhibitors of the TAR RNA-Tat protein interaction started with the assumption that constrained peptidomimetics would provide effective rationale to block the relatively large interfaces formed between the viral protein and its cognate RNA [24]–[27]. The D-Pro-L-Pro template restricts pharmacophores into planar ß-hairpin structures with side chains emerging from each side. […] Specific and high affinity binding allow ...

[15] = tested on: HIVNL4-3 transcription / virus production; test: Single-cycle growth assay, 293T cells transfected with pNL4-3 (Figure 3C); conditions: 50 µM; 293T cells transfected with HIVNL4-3; monitored by RT activity
[16] = tested on: HIV-1NL4-3; test: Infection of U87.CD4.CXCR4 cells with supernatants of L-50-treated 293T transfections (Figure 4D); type: cell-based
Experimental: To test whether the virus released from transfected cells could be inhibited by L-50 under conditions of multiple-cycle growth, virus-containing supernatants from 293T transfections (containing L-50) were used to infect U87.CD4.CXCR4 cells (which support multiple rounds of HIV-1 replication) and viral progeny were measured 10 days post-infection. […] Removal of L50 from virus was attempted by pelleting virus from supernatant of L50-treated cells transfected with NL4-3. It is important to note that virus production was already decreased by L50 at least 50% from transfected cells.

[17] = tested on: Tat-dependent transcription from HIV-1 LTR; test: Tat-dependent transactivation in cell-free transcription; type: biochemical
[18] = U87.CD4.CXCR4 cells, Tat-independent SV40-driven reporter
[19] = synchronized infection, luciferase at 72 h, triplicate
[20] = L50 250 µM, synchronized infection, luciferase at 72 h, triplicate

## Nc1ccn([C@@H]2CS[C@H](CO)O2)c(=O)n1 [3TC]
[1]; Human immunodeficiency virus 1, virus production by RT assay, MOI 0.001
  IC50: 120 ± 30 nM
[2]; [18]
  Luciferase expression in HIV-1Luc-AM infected cells: efficiently inhibited
[3]
  IC50: 10 nM
[4]
  Inhibition of MLV replication (words, Discussion): blocked MLV replication

## Cc1nnc(C(=O)NC(C)(C)c2nc(C(=O)NCc3ccc(F)cc3)c(O)c(=O)n2C)o1 [Raltegravir, reference compound]
[5]; [19]
  t1/2, time of drug addition that maintains 50% inhibition: 11.5 h

## OC[C@H]1O[C@@H](n2cnc3cc(Cl)c(Cl)cc32)[C@H](O)[C@@H]1O [DRB, 5,6-dichloro-1-ß-D-ribobenzimidazole, reference compound]
[2]; [18]
  Luciferase expression in HIV-1Luc-AM infected cells: efficiently inhibited
[6]
  t1/2, time of drug addition that maintains 50% inhibition, cell-to-cell fusion: 11.3 h
[5]; [19]
  t1/2, time of drug addition that maintains 50% inhibition: 35.3 h

## Cc1ccnc2c1NC(=O)c1cccnc1N2C1CC1 [NVP]
[3]
  IC50: 65 nM
[7]
  t1/2 of nevirapine in time-of-drug-addition: ~7 h

## c1cc(CN2CCCNCCNCCCNCC2)ccc1CN1CCCNCCNCCCNCC1 [AMD3100, reference compound]
[6]
  Inhibition of cell-to-cell fusion: highly sensitive to inhibition
[5]; [19]
  t1/2, time of drug addition that maintains 50% inhibition: 0.77 h

## Cc1cn([C@H]2C[C@H](N=[N+]=[N-])[C@@H](CO)O2)c(=O)[nH]c1=O [AZT]
[4]
  Inhibition of MLV replication (words, Discussion): blocked MLV replication
[4]; 100 µM
  Inhibition of MLV replication: completely blocked

## CC[C@H](C)[C@@H]1NC(=O)[C@H](CCCNC(=N)N)NC(=O)[C@H](CCCNC(=N)N)NC(=O)[C@H](CCCCN)NC(=O)CNC(=O)[C@H](CCCNC(=N)N)NC(=O)[C@H]([C@@H](C)O)NC(=O)[C@H](CCCNC(=N)N)NC(=O)[C@H](C(C)C)NC(=O)[C@H](CCCNC(=N)N)NC(=O)[C@@H]2CCCN2C(=O)[C@H]2CCCN2C(=O)[C@H](CCCNC(=N)N)NC(=O)[C@H](CCCNC(=N)N)NC1=O [L-50] (HELM PEPTIDE1{R.V.R.T.R.G.K.R.R.I.R.R.[dP].P}$PEPTIDE1,PEPTIDE1,1:R1-14:R2$$$V2.0)
[1]; Figure 2A
  Inhibition of HIV-1NL4-3 replication: able to inhibit replication
[8]; Discussion
  Affinity for HIV-1 TAR: nanomolar affinities
[8]; in vitro
  Kd: 1 nM
[2]
  Luciferase expression in HIV-1Luc-AM infected cells: efficiently blocked
[6]
  Inhibition of cell-to-cell fusion: no measurable inhibition
  t1/2, time of drug addition that maintains 50% inhibition, cell-to-cell fusion: 8.2 h
[9]
  Reduction of Tat-mediated transactivation: 53%
[10]; 200 µM, 293T cells, p = 0.03, N = 5
  Decrease in luciferase expression (pLTR.LUC + HIV-1NL4-3): 1.7 fold
[10]; 200 µM, RT activity in cell-free supernatant of transfected 293T cells
  HIV-1 virion expression: modest, but reproducible reduction
[10]; 293T cells, no Tat
  Luciferase expression in cells transfected with either reporter plasmid alone: did not inhibit
[11]; 8 µM
  Inhibition of (−) strong stop synthesis on the wild type template: 80%
[11]; read-out: IC50, inhibition of (−) strand strong stop DNA synthesis (as printed in picture of Figure 8B)
  IC50: 5500 ± 570 nM
[11]; recombinant HIV-1 RT, 18 nt DNA primer, RNA template ∼2 µM, 37°C 45 min, triplicate, read-out: IC50, inhibition of (−) strand strong stop DNA synthesis
  IC50: 5500 ± 570 nM
[12]; 10 µM, 293T cells
  Reduction of transcription from control CMV promoter: 12%
[12]; 50 µM, 293T cells cotransfected with HIVNL4-3
  Reduction of CMV promoter-driven luciferase activity: less than 5%
[12]; 293T cells, Figure 4B
  CMV promoter-driven luciferase expression with HIV-1NL4-3: not significantly inhibited
[13]
  Inhibition of (−) strong stop DNA synthesis on template with mutations in the TAR L-50 binding site: less than 10%
[14]
  Discrimination against BIV TAR RNA sequence: effectively discriminated
[15]
  Inhibition of production of the viral RNA: 76%
[5]; [20]
  t1/2, first (early) phase of biphasic inhibition: 1.8 h
  t1/2, second (late) phase of biphasic inhibition: 35.7 h
[5]; added up to approximately 2 h post infection
  Block of viral replication in the initial inhibitory phase: ~100%
[16]; 293T cells transfected with NL4-3
  Decrease of virus production from transfected cells: at least 50%
[16]; U87.CD4.CXCR4 cells infected with virus made in the presence of L-50
  Viral progeny 10 days post-infection: No measurable viral progeny
[4]
  Inhibition of MLV: did not inhibit
  Inhibition of MLV replication (words, Discussion): did not
[17]; cell-free transcription, nuclear extract, recombinant Tat, 20 min at 30°C, read-out: IC50, decrease of full-length transcripts (ρ)
  IC50: 50 nM
[17]; internal control for non-specific inhibition of transcription
  Production of short transcripts (τ): largely unaffected
